Earlier results, collected in patent US20230255982A1 (priority 2020, published 2023).
Like-named read-outs stand apart in the source and are kept apart here. Marks after values point to notes of the source that are not given here.

System: stage 3-4 CKD patients with diabetic nephropathy
Conditions: ASCEND

SMILES: COc1ccccc1Oc1c(NS(=O)(=O)c2ccc(C)cn2)nc(-c2ccncc2)nc1OC [Avosentan]
- Occurrence of CHF (25 mg, N = 455): 5.9%*
- Occurrence of ESRD (25 mg, N = 455): 4.4%
- Occurrence of CHF (50 mg, N = 478): 6.1%*
- Occurrence of ESRD (50 mg, N = 478): 5.0%
